Laboratory results: patent EP4741395A1, “NOVEL COMPOUND SENSITIVE TO NITROGEN MONOXIDE AND PHARMACEUTICAL COMPOSITION COMPRISING SAME” (Omniamed Co. Ltd, priority 2023, dated 2025)

What was measured:
splenocytes [1] = test: Inhibitory activity on cell proliferation in splenocytes (CCK-8 analysis); type: cell-based, C57BL/6 mouse; settings: Mus musculus, Splenocyte, Concanavalin A 5 µg/mL, 72 hours, read-out: Inhibitory Activity on Cell Proliferation (%) (Mean±SD)
[2] = Efficacy on collagen-induced rheumatoid arthritis (arthritis score); type: in vivo, DBA/1 male mice; settings: FIG. 7
Experimental: (§1) The experimental animals were 30 8-week-old DBA/1 male mice. […] The number of normal mice was set to five in order to minimize the number of experimental animals. The group administered with Compound (1) consisted of 5 to 6 mice, a minimal number required to obtain statistically meaningful data given the limited amount of the drug.
(§2) In order to establish a rheumatoid arthritis model, 100 µL of a mixture solution in which 2 mg/mL of chick type II collagen and 1 mg/mL of Complete Freund's Adjuvant (CFA) were mixed in a ratio of 1:1 was administered intradermally to each of the mouse tails. After 19 days, 100 µL of an emulsion in which 2 mg/mL of chick type II collagen and Incomplete Freund's Adjuvant (IFA) were mixed in a ratio of 1:1 was administered intradermally to each of the mouse tails.
The test substances of Table 23 were administered orally every day according to the drug dosing period and dosing frequency. As for the rheumatoid arthritis score (arthritis score), the score of each of the four paws was quantified according to the criteria shown in the following Table 24, and the individual scores were summed to generate the final score.
as §1, with “31” for “30”, “(11)” for “(1)”, “5” for “5 to 6”, “drug. Each of the remaining groups consisted of 7 mice, with two extra mice added to account for experimental error.” for “drug.”
as §2
Oral administration was conducted daily according to the dose, dosing frequency and dosing period of Table 25. Based on the criteria shown in Table 24, rheumatoid arthritis score for the four paws were quantified and summed to generate the score.

JAK 3 = target: T1, JAK 3 (Homo sapiens, UniProt P52333); test: JAK Human TK kinase enzymatic radiometric assay (Eurofins), JAK 3; type: biochemical; set-up: unit not given here; settings: value close to 100 indicates low JAK activity of the compound
T1 construct: purchased Eurofins Scientific (assay service)
T1 sequence (P52333 1-1124): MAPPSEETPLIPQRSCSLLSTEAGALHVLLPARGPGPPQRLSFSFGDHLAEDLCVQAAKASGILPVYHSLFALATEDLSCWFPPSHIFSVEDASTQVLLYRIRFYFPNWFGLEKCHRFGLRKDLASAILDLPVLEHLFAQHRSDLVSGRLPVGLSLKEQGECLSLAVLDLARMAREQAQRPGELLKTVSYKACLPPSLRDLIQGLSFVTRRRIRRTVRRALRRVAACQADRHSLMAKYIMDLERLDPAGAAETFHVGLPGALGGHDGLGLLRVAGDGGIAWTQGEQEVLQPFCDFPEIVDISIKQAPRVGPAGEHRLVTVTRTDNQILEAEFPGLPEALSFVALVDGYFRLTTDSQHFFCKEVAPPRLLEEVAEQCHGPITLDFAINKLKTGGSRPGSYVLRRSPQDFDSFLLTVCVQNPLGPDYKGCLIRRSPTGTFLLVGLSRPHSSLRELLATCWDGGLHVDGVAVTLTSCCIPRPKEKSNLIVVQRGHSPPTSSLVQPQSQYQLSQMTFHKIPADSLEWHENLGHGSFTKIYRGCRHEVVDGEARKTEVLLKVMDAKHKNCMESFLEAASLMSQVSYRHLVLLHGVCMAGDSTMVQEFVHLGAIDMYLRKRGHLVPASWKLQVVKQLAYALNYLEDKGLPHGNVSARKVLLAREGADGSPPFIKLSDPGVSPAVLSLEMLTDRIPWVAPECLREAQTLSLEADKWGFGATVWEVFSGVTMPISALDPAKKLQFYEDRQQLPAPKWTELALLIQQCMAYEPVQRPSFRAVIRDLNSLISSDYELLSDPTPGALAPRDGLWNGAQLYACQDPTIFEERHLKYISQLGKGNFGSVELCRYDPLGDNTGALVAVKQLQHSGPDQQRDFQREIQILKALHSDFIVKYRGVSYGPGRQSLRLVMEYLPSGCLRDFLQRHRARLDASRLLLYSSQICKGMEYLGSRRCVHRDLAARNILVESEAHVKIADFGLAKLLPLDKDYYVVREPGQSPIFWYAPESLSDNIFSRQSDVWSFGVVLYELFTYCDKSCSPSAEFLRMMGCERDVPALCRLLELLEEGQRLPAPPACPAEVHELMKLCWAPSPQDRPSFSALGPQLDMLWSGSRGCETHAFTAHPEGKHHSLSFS
Description: (§3) For the compounds of the Examples, JAK activity of each of the compounds was verified using the JAK Human TK Kinase Enzymatic Radiometric Kinase Profiler Assay service provided by Eurofins Scientific.
(§4) The activity was verified after inducing a reaction at the JAK 1, 2 and 3 active sites using radioactively labeled ATP.

IFN-γ = IFN-γ reduction activity in Concanavalin A-treated splenocytes (quantitative ELISA); type: cell-based, C57BL/6 mouse; settings: Mus musculus, Splenocyte, Concanavalin A 5 µg/mL, 72 hours, read-out: IFN-γ Reduction Activity (%) (Mean±SD)
Experimental: (§5) A spleen was isolated from an 8-week-old C57BL/6 mouse, and splenocytes were isolated using a physical method.
(§6) The separated splenocytes were diluted to a concentration of 5×10^6 cells/mL in a RPMI 1640 medium including 10% FBS, 100 U/mL of penicillin and 100 µg/mL of streptomycin, and the diluted splenocytes were dispensed at 500 µL/well into a 48-well plate and 100 µL/well into a 96-well plate, and cultured for 72 hours in an incubator. The splenocytes were treated with Concanavalin A (5 µg/mL) when dispensed to induce an immune response, and herein, […] of the pharmaceutical composition including the compound according to each of the Examples was also added thereto. After 72 hours, the supernatant was collected, and the level of remaining NO was checked through a Griess assay, and calculated by the following Equation 4.
NO is one of important inflammatory mediators, and may increase the level of inflammatory cytokine. Concanavalin A (5 µg/mL), which induces an immune response in splenocytes, and the compound of each of Examples were treated in a concentration-dependent manner to check whether the level of IFN-γ, a representative inflammatory cytokine, was reduced. The supernatant was collected 72 hours after the treatment, and analyzed using a quantitative enzyme-linked immunosorbent assay (Quantitative-ELISA).

Raw 264.7 cell line = test: NO scavenging activity in LPS-treated immune cells (Griess reagent); type: cell-based; settings: Mus musculus, RAW264.7, Raw 264.7, LPS 500 ng/mL, 24 hours, read-out: NO Scavenging Activity (%) (Mean±SD)
JAK 2 = target: T2, JAK 2 (Homo sapiens, UniProt O60674); test: JAK Human TK kinase enzymatic radiometric assay (Eurofins), JAK 2; type: biochemical; set-up: unit not given here; settings: value close to 100 indicates low JAK activity of the compound
T2 construct: purchased Eurofins Scientific (assay service)
Description: as §3, §4

JAK 1 = JAK 1 (Homo sapiens, UniProt P23458); test: JAK Human TK kinase enzymatic radiometric assay (Eurofins), JAK 1; settings: value close to 100 indicates low JAK activity of the compound
splenocytes [3] = test: NO scavenging activity in Concanavalin A-treated splenocytes (Griess assay); type: cell-based, C57BL/6 mouse; settings: Mus musculus, Splenocyte, Concanavalin A 5 µg/mL, 72 hours, read-out: NO Scavenging Activity (%) (Mean±SD)
Experimental: as §5, §6

IL-6 (Interleukin-6) = test: Inhibition of inflammatory cytokine secretion in LPS-treated immune cells (IL-6 sandwich ELISA); type: cell-based; settings: Mus musculus, RAW264.7, Raw 264.7, LPS 500 ng/mL, 24 hours, read-out: IL-6 Reduction Activity (%) (Mean±SD)
Experimental: Raw 264.7 cell line was seeded in a 48-well plate at a density of 8×10^4 cells/well, and cultured at 37°C in a DMEM medium including 10% FBS, 100 U/mL of penicillin and 100 µg/mL of streptomycin.
The medium was cultured overnight, and then replaced with a fresh medium including 10 µM of the pharmaceutical composition sensitive to nitrogen monoxide including the compound of each of Examples 1 and 11 to 13 and 500 ng/mL of LPS, and the fresh medium was cultured again for another 24 hours.
Lastly, the supernatant was collected, and then the level of IL-6 (Interleukin-6) expression was analyzed using a Sandwich enzyme-linked immunosorbent assay (ELISA). Specifically, a standard solution and 50 µL of the diluted supernatant were introduced to each well of a well plate coated with an antibody specific to IL-6, and after binding IL-6 to the immobilized antibody, the well was washed with a washing buffer, followed by a reaction with HRP as a secondary antibody for 30 minutes at room temperature. The well was washed three times with a washing buffer, then color was developed using TMB (3,3', 5,5'-tetramethyl benzidine) as a substrate, and the reaction was stopped using 1 M sulfuric acid to measure the degree of color development at an absorbance of 450 nm.

Chain of JAK 1 (P23458 whole entry): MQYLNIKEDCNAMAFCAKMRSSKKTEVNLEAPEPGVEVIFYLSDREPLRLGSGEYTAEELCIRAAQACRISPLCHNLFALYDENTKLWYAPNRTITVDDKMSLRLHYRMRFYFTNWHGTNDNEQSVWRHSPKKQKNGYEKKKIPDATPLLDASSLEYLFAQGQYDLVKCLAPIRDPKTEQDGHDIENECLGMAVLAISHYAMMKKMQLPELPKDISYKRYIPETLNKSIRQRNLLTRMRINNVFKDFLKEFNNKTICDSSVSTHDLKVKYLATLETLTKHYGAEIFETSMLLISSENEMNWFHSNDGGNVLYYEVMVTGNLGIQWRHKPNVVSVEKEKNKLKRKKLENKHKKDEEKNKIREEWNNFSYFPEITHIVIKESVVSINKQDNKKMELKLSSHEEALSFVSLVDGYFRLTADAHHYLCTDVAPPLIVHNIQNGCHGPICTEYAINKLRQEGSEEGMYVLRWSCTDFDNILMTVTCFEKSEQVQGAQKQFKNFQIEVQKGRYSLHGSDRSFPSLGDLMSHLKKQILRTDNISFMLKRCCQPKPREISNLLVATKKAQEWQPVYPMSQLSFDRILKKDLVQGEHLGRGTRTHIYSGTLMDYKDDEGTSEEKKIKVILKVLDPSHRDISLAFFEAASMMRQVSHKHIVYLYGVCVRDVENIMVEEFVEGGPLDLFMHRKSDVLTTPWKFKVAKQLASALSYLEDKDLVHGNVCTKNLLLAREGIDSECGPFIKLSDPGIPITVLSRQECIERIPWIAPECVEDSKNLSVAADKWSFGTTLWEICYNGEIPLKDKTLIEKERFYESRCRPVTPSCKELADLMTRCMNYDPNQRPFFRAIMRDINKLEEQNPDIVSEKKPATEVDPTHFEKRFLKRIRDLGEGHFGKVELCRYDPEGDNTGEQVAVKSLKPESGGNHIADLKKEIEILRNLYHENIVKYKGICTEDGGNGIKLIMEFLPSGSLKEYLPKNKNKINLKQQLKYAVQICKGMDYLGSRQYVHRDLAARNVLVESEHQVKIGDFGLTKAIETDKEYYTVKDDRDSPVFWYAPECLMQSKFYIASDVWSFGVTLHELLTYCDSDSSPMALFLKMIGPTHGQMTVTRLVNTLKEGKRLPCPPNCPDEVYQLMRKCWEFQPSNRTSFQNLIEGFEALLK
T2 sequence (O60674 whole entry): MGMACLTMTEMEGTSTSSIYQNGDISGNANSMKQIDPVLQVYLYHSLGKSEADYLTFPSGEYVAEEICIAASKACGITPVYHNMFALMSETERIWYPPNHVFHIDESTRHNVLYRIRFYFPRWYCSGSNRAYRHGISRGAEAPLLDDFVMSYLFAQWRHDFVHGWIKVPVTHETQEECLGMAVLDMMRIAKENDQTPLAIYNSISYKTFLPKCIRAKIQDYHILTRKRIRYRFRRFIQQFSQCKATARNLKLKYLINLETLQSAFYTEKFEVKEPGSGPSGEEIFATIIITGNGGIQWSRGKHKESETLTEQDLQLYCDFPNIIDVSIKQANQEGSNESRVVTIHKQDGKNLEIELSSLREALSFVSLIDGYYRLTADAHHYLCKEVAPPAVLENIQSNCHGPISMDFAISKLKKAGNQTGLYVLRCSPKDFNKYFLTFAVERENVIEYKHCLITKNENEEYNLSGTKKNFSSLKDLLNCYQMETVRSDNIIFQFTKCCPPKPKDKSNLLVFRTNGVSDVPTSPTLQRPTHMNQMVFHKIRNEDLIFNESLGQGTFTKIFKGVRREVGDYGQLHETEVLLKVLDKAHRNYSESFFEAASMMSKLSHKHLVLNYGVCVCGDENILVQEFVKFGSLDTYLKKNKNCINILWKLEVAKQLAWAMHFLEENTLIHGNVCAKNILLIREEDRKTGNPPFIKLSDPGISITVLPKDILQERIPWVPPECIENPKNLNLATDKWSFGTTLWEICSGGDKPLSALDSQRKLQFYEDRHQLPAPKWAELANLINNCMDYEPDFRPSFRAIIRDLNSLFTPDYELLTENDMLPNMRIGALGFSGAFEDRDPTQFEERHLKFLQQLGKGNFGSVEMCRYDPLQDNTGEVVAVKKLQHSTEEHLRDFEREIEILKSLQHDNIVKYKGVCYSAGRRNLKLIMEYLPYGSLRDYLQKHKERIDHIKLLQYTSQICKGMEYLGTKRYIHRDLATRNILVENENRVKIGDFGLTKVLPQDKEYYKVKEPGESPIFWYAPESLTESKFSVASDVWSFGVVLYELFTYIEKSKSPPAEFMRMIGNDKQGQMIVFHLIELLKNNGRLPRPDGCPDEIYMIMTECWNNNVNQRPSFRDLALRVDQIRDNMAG

SMILES | inhibition at 10 µM (splenocytes [1]) [%] | rheumatoid arthritis-alleviating efficacy compared with tofacitinib ([2]; 20 mg/kg oral once daily (QD) vs tofacitinib 10 mg/kg BID, entire 40-day period) | rheumatoid arthritis-alleviating efficacy (arthritis score), statistics ([2]; 20 mg/kg oral once daily (QD)) | JAK 3 Activity (JAK 3; 0.1 nM) | JAK 3 Activity (JAK 3; 1 nM) | JAK 3 Activity (JAK 3; 10 nM) | JAK 3 Activity (JAK 3; 100 nM) | activity at 10 µM (IFN-γ) [%] | activity at 10 µM (Raw 264.7 cell line) [%] | JAK 2 Activity (JAK 2; 0.1 nM) | JAK 2 Activity (JAK 2; 1 nM) | JAK 2 Activity (JAK 2; 10 nM) | JAK 2 Activity (JAK 2; 100 nM) | JAK 1 Activity (JAK 1; 0.1 nM) | JAK 1 Activity (JAK 1; 1 nM) | JAK 1 Activity (JAK 1; 10 nM) | JAK 1 Activity (JAK 1; 100 nM) | activity at 10 µM (splenocytes [3]) [%] | activity at 10 µM (IL-6 (Interleukin-6)) [%]
C[C@@H]1CCN(C(=O)CC#N)C[C@@H]1N(C)c1ncnc2c1ccn2C(=O)N(C(=O)Nc1ccccc1N)c1ccccc1N [Example 11, N-(2-aminophenyl)-N-((2-aminophenyl)carbamoyl)-4-(((3R,4R)-1-(2-cyanoacetyl)-4-methylpiperidin-3-yl)(methyl)amino)-7H-pyrrolo[2,3-d]pyrimidine-7-carboxamide] | 49.7 ± 3.78 | alleviating efficacy comparable to that of tofacitinib | no statistical differences were verified | 103 | 103 | 98 | 94 | 57.6 ± 15.5 | 48.7 ± 0.01 | 91 | 99 | 89 | 98 | 108 | 103 | 105 | 101 | 67.7 ± 0.84 | 
Cc1ccc(NC(=O)N(C(=O)n2ccc3c(N(C)[C@H]4CN(C(=O)CC#N)CC[C@H]4C)ncnc32)c2ccc(C)cc2N)c(N)c1 [Example 12, N-(2-amino-4-methylphenyl)-N-((2-amino-4-methylphenyl)carbamoyl)-4-(((3R,4R)-1-(2-cyanoacetyl)-4-methylpiperidin-3-yl) (methyl)amino)-7H-pyrrolo[2,3-d]pyrimidine-7-carboxamide] | 64 ± 6.17 |  |  | 114 | 107 | 111 | 88 | 97 ± 0.05 | 31.7 ± 0.15 | 108 | 111 | 102 | 92 | 109 | 110 | 103 | 81 | 64.6 ± 3.65 | 61.7 ± 1.85
COc1ccc(NC(=O)N(C(=O)n2ccc3c(N(C)[C@H]4CN(C(=O)CC#N)CC[C@H]4C)ncnc32)c2ccc(OC)cc2N)c(N)c1 [Example 13, N-(2-amino-4-methoxyphenyl)-N-((2-amino-4-methoxyphenyl)carbamoyl)-4-(((3R,4R)-1-(2-cyanoacetyl)-4-methylpiperidin-3-yl) (methyl)amino)-7H-pyrrolo[2,3-d]pyrimidine-7-carboxamide] | 16.1 ± 2.7 |  |  | 113 | 109 | 112 | 92 | 89.7 ± 0.57 | 34.7 ± 0.28 | 120 | 107 | 102 | 104 | 110 | 113 | 106 | 89 | 66.9 ± 5.06 | 63.1 ± 1.23
